ChEMBL document CHEMBL5465560, “Selectivity Literature for EUbOPEN Chemogenomic Library” (2024)
Blank lines part the entries; values can stand above or below the compound they belong to.

Columns and labels:
[1] = target: T1, Serine/threonine-protein kinase Nek1 (Homo sapiens) (UniProt Q96PY6); assay: Selectivity interaction (KinomeScan (DiscoverX)) EUB0000666a NEK1; conditions: at 10 µM
T1 sequence (whole entry): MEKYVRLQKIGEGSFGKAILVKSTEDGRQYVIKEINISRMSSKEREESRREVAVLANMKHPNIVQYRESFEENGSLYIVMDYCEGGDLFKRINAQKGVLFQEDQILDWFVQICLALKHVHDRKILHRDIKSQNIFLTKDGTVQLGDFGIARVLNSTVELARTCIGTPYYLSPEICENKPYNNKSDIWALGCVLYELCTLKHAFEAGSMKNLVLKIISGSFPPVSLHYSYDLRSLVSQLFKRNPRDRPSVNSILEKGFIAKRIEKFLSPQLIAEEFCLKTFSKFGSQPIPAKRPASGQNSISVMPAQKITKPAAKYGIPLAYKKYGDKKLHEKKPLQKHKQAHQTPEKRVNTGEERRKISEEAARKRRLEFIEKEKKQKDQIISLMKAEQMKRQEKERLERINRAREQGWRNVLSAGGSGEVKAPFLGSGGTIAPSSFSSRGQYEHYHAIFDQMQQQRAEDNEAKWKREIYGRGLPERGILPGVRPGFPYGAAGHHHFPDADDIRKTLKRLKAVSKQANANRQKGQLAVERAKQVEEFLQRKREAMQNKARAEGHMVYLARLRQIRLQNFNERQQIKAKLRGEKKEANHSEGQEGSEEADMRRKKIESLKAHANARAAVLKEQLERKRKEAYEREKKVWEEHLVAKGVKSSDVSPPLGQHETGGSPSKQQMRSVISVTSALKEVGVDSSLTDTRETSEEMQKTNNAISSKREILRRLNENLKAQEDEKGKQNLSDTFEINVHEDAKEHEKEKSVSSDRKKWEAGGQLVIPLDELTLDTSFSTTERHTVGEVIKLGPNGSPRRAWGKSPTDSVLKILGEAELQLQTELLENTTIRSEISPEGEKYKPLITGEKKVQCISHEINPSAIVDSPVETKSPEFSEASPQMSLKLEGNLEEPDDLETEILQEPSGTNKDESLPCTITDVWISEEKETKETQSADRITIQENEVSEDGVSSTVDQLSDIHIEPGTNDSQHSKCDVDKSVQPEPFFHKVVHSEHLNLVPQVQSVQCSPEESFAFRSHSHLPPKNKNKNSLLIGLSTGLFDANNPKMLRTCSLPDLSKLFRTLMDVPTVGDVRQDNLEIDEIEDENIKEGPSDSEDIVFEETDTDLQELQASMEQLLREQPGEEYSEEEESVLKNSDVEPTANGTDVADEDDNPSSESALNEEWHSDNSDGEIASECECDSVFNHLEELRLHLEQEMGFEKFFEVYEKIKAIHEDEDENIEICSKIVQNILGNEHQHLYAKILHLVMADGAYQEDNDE

Focal adhesion kinase 1 = Focal adhesion kinase 1 (Homo sapiens, UniProt Q05397); assay: Selectivity interaction (KinomeScan (DiscoverX)) EUB0000607a PTK2; conditions: at 10 µM
[2] = target: Serine/threonine-protein kinase 10 (Homo sapiens) (UniProt O94804); assay: Selectivity interaction (Upstate Kinase Profiler service (Millipore)) EUB0000056c STK10; conditions: at 1 µM
[3] = target: T2, Rhodopsin kinase GRK1 (Homo sapiens) (UniProt Q15835); assay: Selectivity interaction (KinomeScan (DiscoverX)) EUB0000595a GRK1; conditions: at 10 µM
T2 sequence (whole entry): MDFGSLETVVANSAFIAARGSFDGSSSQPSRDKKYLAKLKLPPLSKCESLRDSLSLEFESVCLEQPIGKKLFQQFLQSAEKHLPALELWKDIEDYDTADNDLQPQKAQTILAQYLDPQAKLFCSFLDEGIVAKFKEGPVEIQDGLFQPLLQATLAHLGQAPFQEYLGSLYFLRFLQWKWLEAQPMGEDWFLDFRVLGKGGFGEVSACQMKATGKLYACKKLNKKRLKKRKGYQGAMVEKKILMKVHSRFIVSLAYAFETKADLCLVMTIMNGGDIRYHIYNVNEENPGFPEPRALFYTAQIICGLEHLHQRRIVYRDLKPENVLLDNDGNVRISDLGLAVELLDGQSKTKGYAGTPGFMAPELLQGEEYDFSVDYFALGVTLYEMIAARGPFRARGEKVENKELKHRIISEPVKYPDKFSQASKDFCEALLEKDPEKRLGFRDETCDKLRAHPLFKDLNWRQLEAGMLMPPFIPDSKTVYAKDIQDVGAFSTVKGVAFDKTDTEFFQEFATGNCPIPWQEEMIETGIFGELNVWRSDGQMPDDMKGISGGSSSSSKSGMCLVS

[4] = target: T3, Serine/threonine-protein kinase 4 (Homo sapiens) (UniProt Q13043); assay: Selectivity interaction (KinomeScan (DiscoverX)) EUB0001049a STK4; conditions: at 1 µM
T3 sequence (whole entry): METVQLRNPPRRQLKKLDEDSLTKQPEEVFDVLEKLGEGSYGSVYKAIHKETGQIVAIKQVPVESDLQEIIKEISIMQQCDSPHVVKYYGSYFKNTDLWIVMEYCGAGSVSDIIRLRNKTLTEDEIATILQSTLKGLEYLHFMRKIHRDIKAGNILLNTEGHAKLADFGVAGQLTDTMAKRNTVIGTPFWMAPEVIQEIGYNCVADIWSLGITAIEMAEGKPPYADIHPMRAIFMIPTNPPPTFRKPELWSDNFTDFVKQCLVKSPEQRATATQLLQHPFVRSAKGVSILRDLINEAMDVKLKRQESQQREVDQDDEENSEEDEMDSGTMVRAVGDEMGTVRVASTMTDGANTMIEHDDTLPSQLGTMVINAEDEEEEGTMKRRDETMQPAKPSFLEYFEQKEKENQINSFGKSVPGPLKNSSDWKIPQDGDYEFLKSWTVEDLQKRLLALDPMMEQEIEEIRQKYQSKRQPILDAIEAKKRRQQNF

[5] = target: RAC-alpha serine/threonine-protein kinase (Homo sapiens, UniProt P31749); assay: Selectivity interaction (Millipore kinase profiler) EUB0000124b AKT1; conditions: at 10 µM
[6] = target: Ribosomal protein S6 kinase alpha-6 (Homo sapiens, UniProt Q9UK32); assay: Selectivity interaction (KinomeScan (DiscoverX)) EUB0000045b RPS6KA6
[7] = target: Serine/threonine-protein kinase MARK2 (Homo sapiens) (UniProt Q7KZI7); assay: Selectivity interaction (KinomeScan (DiscoverX)) EUB0001079a MARK2; conditions: at 1 µM
[8] = target: Mitogen-activated protein kinase 1 (Homo sapiens, UniProt P28482); assay: Selectivity interaction (KinomeScan (DiscoverX)) EUB0000229b MAPK1; conditions: at 10 µM
[9] = target: T1, Serine/threonine-protein kinase Nek1 (Homo sapiens); conditions: at 10 µM

Chain of Ribosomal protein S6 kinase alpha-6 (Q9UK32 whole entry): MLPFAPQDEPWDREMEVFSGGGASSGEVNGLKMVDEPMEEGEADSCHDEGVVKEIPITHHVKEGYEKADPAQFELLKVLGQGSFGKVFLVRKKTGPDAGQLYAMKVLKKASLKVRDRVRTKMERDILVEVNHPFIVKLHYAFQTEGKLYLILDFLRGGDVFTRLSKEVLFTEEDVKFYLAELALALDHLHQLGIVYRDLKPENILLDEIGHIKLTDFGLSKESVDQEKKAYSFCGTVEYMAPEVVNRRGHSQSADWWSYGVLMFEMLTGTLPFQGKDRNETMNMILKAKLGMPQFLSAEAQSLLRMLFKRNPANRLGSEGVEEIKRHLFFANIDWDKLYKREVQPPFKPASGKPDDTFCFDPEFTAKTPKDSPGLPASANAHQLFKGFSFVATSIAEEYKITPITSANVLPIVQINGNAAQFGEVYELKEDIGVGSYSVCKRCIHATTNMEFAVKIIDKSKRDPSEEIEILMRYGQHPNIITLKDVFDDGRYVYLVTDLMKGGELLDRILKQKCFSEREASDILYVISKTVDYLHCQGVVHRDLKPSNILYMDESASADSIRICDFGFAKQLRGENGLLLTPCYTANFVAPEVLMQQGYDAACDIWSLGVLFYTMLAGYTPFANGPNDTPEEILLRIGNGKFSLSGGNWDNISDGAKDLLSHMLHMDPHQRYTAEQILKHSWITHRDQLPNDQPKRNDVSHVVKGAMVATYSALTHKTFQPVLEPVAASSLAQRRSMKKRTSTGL
Chain of Serine/threonine-protein kinase MARK2 (Homo sapiens) (Q7KZI7 whole entry): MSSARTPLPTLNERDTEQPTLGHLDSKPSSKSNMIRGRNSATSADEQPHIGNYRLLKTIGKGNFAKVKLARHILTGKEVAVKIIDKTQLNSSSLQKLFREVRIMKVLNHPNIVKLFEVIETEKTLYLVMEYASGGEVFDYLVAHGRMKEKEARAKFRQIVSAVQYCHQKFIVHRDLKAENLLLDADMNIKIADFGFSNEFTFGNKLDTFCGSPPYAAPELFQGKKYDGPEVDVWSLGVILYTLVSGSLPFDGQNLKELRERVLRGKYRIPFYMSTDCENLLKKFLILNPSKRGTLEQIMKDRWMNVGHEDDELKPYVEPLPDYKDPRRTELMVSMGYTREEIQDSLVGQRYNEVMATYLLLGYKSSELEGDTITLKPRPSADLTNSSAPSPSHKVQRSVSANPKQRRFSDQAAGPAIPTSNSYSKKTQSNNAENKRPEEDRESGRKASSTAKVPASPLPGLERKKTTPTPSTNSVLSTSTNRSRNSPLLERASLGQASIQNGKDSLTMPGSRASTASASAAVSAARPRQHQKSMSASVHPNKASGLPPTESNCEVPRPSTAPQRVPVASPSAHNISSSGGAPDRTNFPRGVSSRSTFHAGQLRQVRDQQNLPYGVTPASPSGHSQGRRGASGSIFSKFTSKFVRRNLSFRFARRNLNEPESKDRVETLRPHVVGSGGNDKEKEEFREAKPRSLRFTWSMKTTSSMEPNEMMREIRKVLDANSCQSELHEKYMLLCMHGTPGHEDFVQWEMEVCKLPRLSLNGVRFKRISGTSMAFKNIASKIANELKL
Chain of Mitogen-activated protein kinase 1 (P28482 whole entry): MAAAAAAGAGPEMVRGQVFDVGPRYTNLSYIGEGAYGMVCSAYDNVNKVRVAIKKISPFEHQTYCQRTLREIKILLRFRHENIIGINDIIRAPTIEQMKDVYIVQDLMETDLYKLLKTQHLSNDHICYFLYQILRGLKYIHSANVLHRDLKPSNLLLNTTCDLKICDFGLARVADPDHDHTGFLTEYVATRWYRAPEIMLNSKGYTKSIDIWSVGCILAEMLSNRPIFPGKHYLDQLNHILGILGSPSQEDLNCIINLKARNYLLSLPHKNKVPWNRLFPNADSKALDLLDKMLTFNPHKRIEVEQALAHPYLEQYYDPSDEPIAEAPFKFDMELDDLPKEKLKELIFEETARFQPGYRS
Chain of RAC-alpha serine/threonine-protein kinase (P31749 whole entry): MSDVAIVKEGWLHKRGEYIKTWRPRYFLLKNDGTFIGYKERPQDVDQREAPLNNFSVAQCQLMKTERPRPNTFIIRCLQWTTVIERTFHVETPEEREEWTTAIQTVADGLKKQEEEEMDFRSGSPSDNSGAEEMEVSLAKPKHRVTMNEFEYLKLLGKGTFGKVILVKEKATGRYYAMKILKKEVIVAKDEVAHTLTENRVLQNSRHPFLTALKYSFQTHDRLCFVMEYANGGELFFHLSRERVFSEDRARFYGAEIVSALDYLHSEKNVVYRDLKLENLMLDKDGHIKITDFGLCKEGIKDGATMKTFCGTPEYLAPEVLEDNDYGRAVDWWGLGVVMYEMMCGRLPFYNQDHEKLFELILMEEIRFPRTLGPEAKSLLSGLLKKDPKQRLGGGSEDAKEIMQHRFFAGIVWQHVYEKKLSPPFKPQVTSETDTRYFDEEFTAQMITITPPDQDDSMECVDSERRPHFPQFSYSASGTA
Chain of Serine/threonine-protein kinase 10 (Homo sapiens) (O94804 whole entry, looked up): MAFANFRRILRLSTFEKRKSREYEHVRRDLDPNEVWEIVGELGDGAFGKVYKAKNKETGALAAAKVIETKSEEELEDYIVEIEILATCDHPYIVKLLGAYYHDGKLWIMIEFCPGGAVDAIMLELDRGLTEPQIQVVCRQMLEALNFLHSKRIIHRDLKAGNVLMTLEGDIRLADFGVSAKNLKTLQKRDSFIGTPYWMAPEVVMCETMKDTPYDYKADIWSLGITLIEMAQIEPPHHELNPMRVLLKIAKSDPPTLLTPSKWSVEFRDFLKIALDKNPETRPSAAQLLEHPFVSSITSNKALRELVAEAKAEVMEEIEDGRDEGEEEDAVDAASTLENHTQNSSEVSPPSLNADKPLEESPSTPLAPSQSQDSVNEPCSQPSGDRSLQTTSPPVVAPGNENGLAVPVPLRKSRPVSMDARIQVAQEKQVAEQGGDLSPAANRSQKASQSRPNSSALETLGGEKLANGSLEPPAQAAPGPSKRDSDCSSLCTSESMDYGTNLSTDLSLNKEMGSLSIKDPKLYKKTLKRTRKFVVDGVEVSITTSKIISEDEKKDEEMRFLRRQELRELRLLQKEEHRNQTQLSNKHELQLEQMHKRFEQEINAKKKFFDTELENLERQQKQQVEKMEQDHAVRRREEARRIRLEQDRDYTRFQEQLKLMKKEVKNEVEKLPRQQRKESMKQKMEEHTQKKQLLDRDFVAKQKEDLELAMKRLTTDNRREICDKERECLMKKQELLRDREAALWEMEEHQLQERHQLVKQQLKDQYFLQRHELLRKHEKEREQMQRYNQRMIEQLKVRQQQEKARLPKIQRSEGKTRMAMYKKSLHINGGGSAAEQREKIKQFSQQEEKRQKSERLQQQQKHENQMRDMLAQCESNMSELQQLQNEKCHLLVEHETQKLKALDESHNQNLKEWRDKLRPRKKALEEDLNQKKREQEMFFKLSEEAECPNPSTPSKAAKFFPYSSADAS
Chain of Focal adhesion kinase 1 (Q05397 2-1052 limits assumed): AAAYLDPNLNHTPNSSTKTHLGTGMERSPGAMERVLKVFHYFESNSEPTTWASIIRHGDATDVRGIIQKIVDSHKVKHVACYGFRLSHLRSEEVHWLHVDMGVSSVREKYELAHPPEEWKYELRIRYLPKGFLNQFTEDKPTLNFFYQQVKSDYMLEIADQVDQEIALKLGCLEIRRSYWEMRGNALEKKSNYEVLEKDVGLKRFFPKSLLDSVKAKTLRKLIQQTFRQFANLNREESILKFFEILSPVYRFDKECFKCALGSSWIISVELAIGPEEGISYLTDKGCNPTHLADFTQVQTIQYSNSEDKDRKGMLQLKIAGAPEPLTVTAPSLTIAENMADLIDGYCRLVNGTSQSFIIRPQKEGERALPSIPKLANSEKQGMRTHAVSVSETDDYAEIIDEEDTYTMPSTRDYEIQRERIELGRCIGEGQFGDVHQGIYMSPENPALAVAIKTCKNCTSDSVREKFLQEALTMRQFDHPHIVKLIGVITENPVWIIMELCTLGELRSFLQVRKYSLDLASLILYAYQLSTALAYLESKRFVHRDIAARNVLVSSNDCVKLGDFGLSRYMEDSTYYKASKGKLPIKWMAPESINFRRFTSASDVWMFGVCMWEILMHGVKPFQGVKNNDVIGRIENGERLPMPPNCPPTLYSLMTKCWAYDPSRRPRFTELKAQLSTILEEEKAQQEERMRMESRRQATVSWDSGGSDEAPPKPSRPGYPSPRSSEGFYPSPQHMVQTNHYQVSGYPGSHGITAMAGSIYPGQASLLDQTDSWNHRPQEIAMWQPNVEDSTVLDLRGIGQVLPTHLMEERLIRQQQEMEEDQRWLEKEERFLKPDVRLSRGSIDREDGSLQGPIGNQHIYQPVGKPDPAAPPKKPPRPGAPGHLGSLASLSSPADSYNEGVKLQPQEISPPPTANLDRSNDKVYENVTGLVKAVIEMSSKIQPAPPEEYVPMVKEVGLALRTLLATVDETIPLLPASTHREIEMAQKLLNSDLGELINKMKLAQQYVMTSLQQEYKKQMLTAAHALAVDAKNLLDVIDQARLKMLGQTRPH

SMILES: O=C(NOC[C@H](O)CO)c1ccc(F)c(F)c1Nc1ccc(I)cc1F
- % of control [1]: 98%

SMILES: CNC(=O)Nc1ccc(-c2nc(N3CC4CCC(C3)O4)c3cnn(C4CCC5(CC4)OCCO5)c3n2)cc1
- % of control (Focal adhesion kinase 1): 78%

- % of inhibition [2]: 47%
SMILES: Cc1ccc(-c2ccc3c(ccc4sc5c(c43)NC[C@@H](C)NC5=O)n2)cn1

SMILES: COCC(=O)NC/C=C/c1ccc2ncnc(Nc3ccc(Oc4ccc(C)nc4)c(C)c3)c2c1 [CP-724714]
- % of control [3]: 100%

SMILES: COc1cc(Nc2nc(C)cc(-c3cnn4nc(OC)ccc34)n2)cc(C(F)(F)F)c1
- % of control [4]: 85%

- % of control [5]: 107%
SMILES: CC(=O)Nc1cccc(-n2c(=O)n(C3CC3)c(=O)c3c(Nc4ccc(I)cc4F)n(C)c(=O)c(C)c32)c1

SMILES: C=CC(=O)Nc1cc(-n2c(=O)ccc3cnc4ccc(-c5ccc(NS(C)(=O)=O)cc5)cc4c32)ccc1C
- % of control ([6]; at 1 µM): 100%
- % of control ([6]; at 10 µM): 56%

SMILES: Nc1cnc(N2CCc3cc(S(=O)(=O)Nc4c(F)cc(Cl)cc4F)cc(N4CCCC4=O)c32)nc1 [TP-020n]
- % of control [7]: 74%

SMILES: COc1cc(N(C)c2ccnc3ccc(C(F)(F)F)cc23)cc(OC)c1OC
- % binding [8]: 97%

SMILES: Cc1cc([C@@H](C)Nc2ccccc2C(=O)O)c2nc(N3CCOCC3)cc(=O)n2c1 [AZD-6482]
- % of control [9]: 85%
